Laboratory results taken from US6630120B1, “Agents to increase the uptake of pharmaceuticals and diagnostic substances into solid tumors” (priority 1999, dated 2003).
Where two headings read alike, the source gives them in different places.

How the values were obtained:
implanted tumor and lung = assay: Retention of 14C-carboplatin in solid tumors and in lung; assay type: in vivo, rat; conditions: FIG. 8
Description: The carboplatin was administered two minutes into a five minute Cereport™ infusion.

[1] = test system: MAT B-III metastatic lung tumors; assay: Animal survival with MAT B-III metastatic lung tumors after carboplatin and Cereport; assay type: in vivo, rat; conditions: FIG. 13
Description: MAT B-III cells were introduced into the lungs of 12 female F-344 Fisher rats by intrajugular injections of either 1×10^5 or 1×10^6 cells in 200 μl suspensions. The cells and animals were maintained and handled as described in Example 1. At various times following the injections, the number of surface tumor colonies on the lungs was assessed. Tumors were visually counted by injecting India ink into the trachea of the animals.
Finally, the effects of the administration of carboplatin and Cereport™ on the survival of animals who had been subjected to the implantation of MAT B-III metastatic lung surface tumors was assessed. In this study, 1×10^6 MAT B-III cells as a 200 μl suspension were implanted by intrajugular injection in 54 male Fischer rats. Sixteen days later, indwelling cannulae were inserted in the previously implanted jugular vein. On days 16 and 23, the animals received a continuous infusion of 5 mg/kg of carboplatin over a 15 minute period. Immediately following the 15 minute carboplatin infusion, the animals received a 10 minute continuous infusion of either saline or Cereport (1.5 μg/kg). The survival rates for the animals were then monitored.

[2] = test system: MAT B (III) rat mammary adenocarcinoma tumor implanted in the flank
Description: A series of studies were carried out on rat hosts in which suspended tumor cells had been subcutaneously implanted in the flank of the animal to create a solid tumor in situ. The effects of the administration of Cereport™ on the incorporation of ^14C-carboplatin into the tumor were evaluated.
Male Fischer rats (170-220 g; Taconic Farms, Germantown, N.Y.) were used in these studies. Animals were housed in pairs in polypropylene cages with free access to food and water. The vivarium was maintained on a 12 h light: 12 h dark cycle with a room temperature of 22±1° C. and relative humidity level of 50±5%.
The MAT B (III) cell line (ATCC CRL-1666), a rat ascites mammary adenocarcinoma, was used to produce peripheral tumors upon implantation in rats. Cells were grown and maintained at 37° C. in a 95% air/5% CO2 humidified atmosphere using McCoy's medium 5A (GIBCO) supplemented with 20 mM HEPES, 1/2X Antibody-Antimycotic, and 10% heat-inactivated Fetal Bovine Serum.
Immediately prior to implantation, MAT B-III cells were suspended in 1.2% methyl cellulose at a density of 5×10^6/ml. 200 μl of this suspension (1×10^6 cells) was injected subcutaneously into the flank of each animal using a 22G needle.
One week after tumor implantation, and under urethane anesthesia (1.8 g/kg; i.p.), cannulae (PE50, Clay Adams, Bectin Dickinson, Sparks, Md.) were placed in the jugular vein for drug administration and both femoral arteries for the measurement of physiological parameters.
Cereport™ (RMP-7, Alkermes, Inc., Cambridge, Mass.) and ^14C-carboplatin or -dextran (SA=144 μCi/mg and 1.08 μCi/mg respectively) were dissolved in sterile 0.9% saline and infused intravenously using a syringe pump at a rate of 0.05 ml/min over the entire administration period. Using the human clinical protocol as a basis, ^14C-carboplatin or dextran (100 μCi/kg) was infused for 15 minutes followed immediately by a 10 minute infusion of Cereport™. Throughout the experiment, body temperature was maintained normothermic (37.0±1.0° C.) and arterial blood gases, pH, and blood pressure were monitored. Animals with physiological values outside the normal ranges were not used.
At the end of the drug administration protocol, rats were sacrificed and the peripheral tumor was rapidly removed. A 1-2 mm thick slice was cut from the center of tumor. The slice was then divided into two equal parts comprising the center of the dissected piece (inner tumor) and the outside edge (outer tumor). Each tumor sample was weighed and placed into a scintillation vial and the amount of radioactivity (nCi/g) was computed for each region using scintillation counts as a measure of the radioactivity.

[3] = test system: MAT B-III tumor in rear flank or mammary fat pads; conditions: FIG. 5; female Fischer rats; 15 min carboplatin then 10 min Cereport 1.0 μg/kg
Description: MAT B-III cells (1×10^6) were implanted in two anatomically distinct sites in female Fischer rats. The tumor cells were implanted into either the subcutaneous space of the rear flank or orthotopically into mammary fat pads. Seven days later, the animals received a 15 minute i.v. infusion of ^14C-Carboplatin (100 μCi/kg) followed immediately by a 10 minute infusion of either saline or Cereport™ at 1.0 μg/kg. Following the saline or Cereport™ infusion, the tumor was rapidly removed and dissected into inner and outer regions. The amount of radioactivity of each tumor region was determined by scintillation counts.

[4] = test system: MAT B-III tumor implanted into the liver; conditions: FIG. 6
Description: MAT B-III cells (1×10^6) were implanted directly into the liver of male Fischer rats using a 25G needle and 1 ml tuberculin syringe. Fourteen days later, the animals received a 15 minute i.v. infusion of ^14C-carboplatin (100 μCi/kg) followed immediately by a 10 minute infusion of either saline or Cereport™ at 1.0 μg/kg. Following the saline or Cereport™ infusion, the liver was rapidly removed. The tumor was dissected free of the surrounding liver tissue and divided into inner and outer regions. A 1 mm strip of liver that immediately surrounded the tumor (inner ring) and the adjacent 1 mm strip of liver (outer ring) were also removed and assayed. In addition, an equivalent strip of liver from the untreated lobe, was removed and assayed. This liver strip served as a control.

[5] = test system: implanted tumor and various organs; conditions: FIG. 7; Cereport 1 μg/kg; carboplatin bolus two minutes into five minute Cereport infusion
Description: The carboplatin was administered as a bolus two minutes into a five minute Cereport™ infusion.

Walker 256 tumor = conditions: FIG. 9; male Wistar rats; 15 min carboplatin then 10 min Cereport 1.0 μg/kg
Description: Walker 256 cells (ATCC CCL-38) (1×10^7) were implanted into the subcutaneous space of the rear flank of male Wistar rats to create a solid tumor in situ in the same manner as previously described for the MAT B-III cells. Eight days later, the animals received a 15 minute i.v. infusion of ^14C-carboplatin (100 μCi/kg) followed immediately by a 10 minute infusion of either saline or Cereport™ at 1.0 μg/kg. Following the saline or Cereport™ infusion, the tumor was rapidly removed and dissected into inner and outer regions. The amount of radioactivity of each tumor region was determined by scintillation counts.

implanted tumor [6] = conditions: FIG. 10
Description: In some instances, Cereport™ is administered in addition to carboplatin. The carboplatin was infused for 15-minutes followed immediately by a 10 minute infusion of Cereport™ at 1.5 μg/kg.

implanted tumor [7] = conditions: FIG. 14; Cereport infusion for 10 minutes at 1 μg/kg
Text: Interstitial fluid pressure is a severe impediment for administered substances into tumor interstitial spaces from the bloodstream.

[8] = target: angiotensin converting enzyme (ACE) (Homo sapiens, UniProt P12821); conditions: general statement, no method given; cited from earlier work
[9] = eighth day, carboplatin plus Cereport 1.5 μg/kg

angiotensin converting enzyme (ACE), sequence (P12821 30-1306, species assumed): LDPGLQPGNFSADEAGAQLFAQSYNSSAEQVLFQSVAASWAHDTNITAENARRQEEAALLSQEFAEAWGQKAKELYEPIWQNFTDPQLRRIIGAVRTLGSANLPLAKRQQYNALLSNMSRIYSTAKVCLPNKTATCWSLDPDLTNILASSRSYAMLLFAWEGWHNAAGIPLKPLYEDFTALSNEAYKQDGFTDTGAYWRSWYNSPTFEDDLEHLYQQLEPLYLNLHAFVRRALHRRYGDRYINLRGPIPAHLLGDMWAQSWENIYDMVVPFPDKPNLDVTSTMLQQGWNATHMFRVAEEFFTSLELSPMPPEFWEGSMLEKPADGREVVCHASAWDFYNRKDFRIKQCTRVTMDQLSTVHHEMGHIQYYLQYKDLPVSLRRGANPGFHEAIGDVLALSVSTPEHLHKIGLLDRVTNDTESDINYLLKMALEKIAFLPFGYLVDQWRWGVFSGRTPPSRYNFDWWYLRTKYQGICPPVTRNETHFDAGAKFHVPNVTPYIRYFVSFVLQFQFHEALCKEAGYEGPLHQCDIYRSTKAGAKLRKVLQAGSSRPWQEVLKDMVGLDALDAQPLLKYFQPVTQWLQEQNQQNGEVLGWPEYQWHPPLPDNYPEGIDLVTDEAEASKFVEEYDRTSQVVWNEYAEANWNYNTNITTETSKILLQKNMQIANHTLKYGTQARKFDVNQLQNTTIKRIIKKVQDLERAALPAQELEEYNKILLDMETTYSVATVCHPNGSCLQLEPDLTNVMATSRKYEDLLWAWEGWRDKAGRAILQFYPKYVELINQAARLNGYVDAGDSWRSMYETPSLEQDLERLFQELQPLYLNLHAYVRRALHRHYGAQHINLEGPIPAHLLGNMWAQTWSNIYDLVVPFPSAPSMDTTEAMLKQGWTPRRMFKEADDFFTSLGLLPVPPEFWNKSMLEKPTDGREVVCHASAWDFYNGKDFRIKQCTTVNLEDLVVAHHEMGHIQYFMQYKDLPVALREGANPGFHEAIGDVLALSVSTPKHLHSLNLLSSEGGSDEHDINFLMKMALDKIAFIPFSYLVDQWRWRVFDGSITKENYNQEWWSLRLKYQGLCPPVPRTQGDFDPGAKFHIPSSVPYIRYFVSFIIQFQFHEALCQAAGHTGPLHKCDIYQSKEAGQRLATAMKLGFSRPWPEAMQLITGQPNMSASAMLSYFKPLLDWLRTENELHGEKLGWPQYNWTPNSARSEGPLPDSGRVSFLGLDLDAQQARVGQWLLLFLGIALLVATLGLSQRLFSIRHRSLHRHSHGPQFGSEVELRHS

## N.N.O=C([O-])C1(C(=O)[O-])CCC1.[Pt+2] [carboplatin]
Implanted tumor and lung; after Cereport administration, carboplatin two minutes into five minute Cereport infusion
  retention of carboplatin in tumor tissue: at least 90 minutes
Implanted tumor and lung; after the initial uptake following Cereport administration
  retention of carboplatin in lung: not retained
[1]; carboplatin 5 mg/kg by itself (followed by saline) on days 16 and 23
  prolongation of survival versus no carboplatin: approximately 10 days

## arginine-proline-hydroxyproline-glycine-thienylalanine-serine-proline-4-Me-tyrosineψ(CH2NH)arginine [Cereport™]
[2]; FIG. 1, carboplatin bolus two minutes into a ten minute Cereport infusion, three Cereport infusion amounts, vs no Cereport
  carboplatin uptake into inner tumor and outer tumor: significantly taken up
[2]; FIG. 2, carboplatin bolus two minutes into a five minute Cereport infusion, Cereport 0.5 μg/kg
  carboplatin uptake into inner tumor and outer tumor: not significantly taken up
[2]; FIG. 2, carboplatin bolus two minutes into a five minute Cereport infusion, Cereport 0.75 μg/kg
  carboplatin uptake into inner tumor and outer tumor: significantly taken up
[2]; FIG. 2, carboplatin bolus two minutes into a five minute Cereport infusion, Cereport 1.0 μg/kg
  carboplatin uptake into inner tumor and outer tumor: significantly taken up
[2]; FIG. 2, carboplatin bolus two minutes into a five minute Cereport infusion, Cereport 1.75 μg/kg
  carboplatin uptake into inner tumor and outer tumor: significantly taken up
[2]; FIG. 2, carboplatin bolus two minutes into a five minute Cereport infusion, Cereport 2.5 μg/kg
  carboplatin uptake into inner tumor and outer tumor: significantly taken up
[2]; FIG. 2, carboplatin bolus two minutes into a five minute Cereport infusion, Cereport 5.0 μg/kg
  carboplatin uptake into inner tumor and outer tumor: not significantly taken up
[2]; FIG. 3, carboplatin infused 15 minutes prior to Cereport, Cereport 0.36 μg/kg
  carboplatin uptake into inner tumor and outer tumor: possible exception
[2]; FIG. 3, carboplatin infused 15 minutes prior to Cereport, all Cereport doses other than 0.36 μg/kg
  carboplatin uptake into inner tumor and outer tumor: significantly taken up
[2]; FIG. 4, dextran infused 15 minutes prior to Cereport, three Cereport infusion amounts, vs no Cereport
  dextran (MW 70 kDa) uptake into inner tumor and outer tumor: significantly taken up
[3]
  carboplatin uptake into implanted tumor located in the flank: significantly taken up
  carboplatin uptake into implanted tumor located in the mammary pad: significantly taken up
[4]; 15 min carboplatin then 10 min Cereport 1.0 μg/kg
  carboplatin uptake into tumor implanted in the liver: significantly taken up
[4]; inner and outer ring liver strips, Cereport 1.0 μg/kg
  carboplatin uptake into liver tissue adjacent to the tumor: does not have a significant effect
[4]; strip from untreated lobe, Cereport 1.0 μg/kg
  carboplatin uptake into control strip of liver: does not have a significant effect
[5]
  carboplatin uptake in tumor tissue compared with heart, lung and liver: far surpasses
  carboplatin uptake into heart, lung and liver: some uptake
Walker 256 tumor
  carboplatin uptake into inner and outer region of Walker 256 tumor: significantly taken up
Implanted tumor [6]; 15 min carboplatin then 10 min Cereport 1.5 μg/kg
  regression of the implanted tumor in comparison to carboplatin alone: markedly cause regression
Implanted tumor [6]; [9]
  tumor size relative to size if Cereport had not been administered with the carboplatin: approximately one half
  tumor size relative to size if no carboplatin had been administered: approximately one third
[1]; carboplatin 5 mg/kg followed by Cereport 1.5 μg/kg on days 16 and 23
  additional extension of survival profile beyond carboplatin alone: approximately 10 days
Implanted tumor [7]
  decrease of interstitial fluid pressure in implanted tumors: up to 40%
[8]
  degradation by angiotensin converting enzyme (ACE): not significantly degraded
